The record followed here is paper PMC10269622, “Blapstin, a Diapause-Specific Peptide-Like Peptide from the Chinese Medicinal Beetle Blaps rhynchopetera, Has Antifungal Function” (Microbiology Spectrum, 2023).

For one series, the system named is C. albicans. Description: pH stability of antifungal activity (paper disk assay). It is filed as physicochemical, Candida albicans. The following applies: 30 min at room temperature, then paper disk assay, 37°C, 18 h. On the procedure:
(ii) Effects of pH. In the test of pH stability of antifungal activity, 50 mg of blapstin was dissolved in 25 mL of solutions with different pH values (pH 3 to 5, 0.1 mol HCl; pH 7 to 9, 1 mmol NaOH), and the peptide solutions of different pH values were incubated at room temperature for 30 min ([63]). Colistin E was used as the positive control, and 1.5% NaCl was used as the negative control. Then, these samples were transferred to the paper disks in the YM solid medium with C. albicans and incubated at 37°C for 18 h for the assay of antifungal activity.

A further series has as its system RAW 264.7 cells. Description: Cytotoxicity, CCK-8 assay. The following applies: from 7.03 μM to 225 μM, 24 h, CCK-8, absorbance at 450 nm; three independent experiments. It is filed as cell-based, mouse. On the procedure: Cytotoxicity was determined using mouse RAW 264.7 cells (10^6 cells/mL). These cells were cultured in sterile 96-well microplates with RPMI 1640 medium (Corning, USA) in a 5% CO2 incubator at 37°C. The medium was supplemented with 10% fetal calf serum (FCS) and penicillin-streptomycin (100 U/mL each). Cytotoxicity was assessed using the cell counting kit-8 (CCK-8) assay (MCE, USA). After 24 h of incubation with serial dilutions of blapstin, 10 μL of CCK-8 solution was added to each well. The plate was further incubated for 1 to 4 h under standard cell growth conditions, and the residual absorbance was read at 450 nm. The experiments were repeated three times according to the manufacturer’s instructions.
For orientation: Formazan colour is commonly taken as a measure of viable cells.

In series [1] the test system is C. albicans ATCC 10231 biofilm. Description: Inhibition of biofilm formation (crystal violet). It counts as cell-based, Candida albicans. The following applies: 0.5×, 1×, 2×, 4× and 8× MIC, 24 h, 37°C, absorbance at 600 nm. On the procedure:
Biofilms are microbial aggregates produced by the extracellular matrix that are attached to abiotic and biotic surfaces ([57]). A biofilm inhibition assay was performed as previously described, with minor modifications, to determine the ability of blapstin to inhibit biofilm formation ([69], [70]). In brief, the concentration of C. albicans ATCC 10231 was adjusted to 1 × 10^6 CFU/mL, and 200 μL per well was added to sterile 96-well plates mixed with different concentrations of blapstin (0.5×, 1×, 2×, 4×, and 8× MIC). After incubation for 24 h at 37°C, these wells were washed three times with PBS to remove unadhered fungal cells, followed by fixation with 99% methanol for 15 min. Next, methanol was removed, and the wells were allowed to dry. Then, 100 μL of 0.1% crystal violet was added to each well for 10 min, and the plate was washed three times. Finally, 100 μL of 95% ethanol was added, and the absorbance at 600 nm was measured to assess biofilm formation. Fluconazole at 10 μM and clotrimazole at 10 μΜ were used as a positive control, and sterile 0.9% NaCl was used as a negative control.

Another series has as its system chymotrypsin. Description: Effect of protease on antifungal activity. It is filed as in vitro ADME. The following applies: 0.5 μL of 10 mg/mL chymotrypsin with 20 μL of 225 μM peptide, 37°C, 1 h; read-out paper disk assay against C. albicans. On the procedure: (§1) (iii) Effects of protease. In terms of the influence of protease on the antifungal activity of blapstin, trypsin and chymotrypsin were selected for the experiment, and 0.5 μL of a 10-mg/mL concentration of proteases (including trypsin and chymotrypsin) and (20 μL(225 μM) of blapstin were mixed and incubated at 37°C for 1 h ([64]). Colistin E was used as the positive control, and 1.5% NaCl was used as the negative control. Then, these samples were transferred to the paper disks in the YM solid medium with C. albicans and incubated at 37°C for 18 h for the assay of antifungal activity.

For another series, the system named is trypsin. The experiment in a line: Effect of protease on antifungal activity. It counts as in vitro ADME. The following applies: 0.5 μL of 10 mg/mL trypsin with 20 μL of 225 μM peptide, 37°C, 1 h; read-out paper disk assay against C. albicans. On the procedure:
as §1

The next series has as its system ion channel. Description: Ion channel inhibition. Particulars: stated in the discussion only, no method or channel given.
A short description of series [2]: Stability in human plasma (residual antifungal activity, inhibition zone). It counts as in vitro ADME. Particulars: 225 μM in 100% human plasma. On the procedure: The stability of blapstin in human plasma was assessed using a previously described method ([67]). Blapstin (225 μM) was mixed with 100% human plasma and incubated at 37°C for 0, 2, 4, 6, 8, 10, 15, and 24 h, respectively. Then, the residual antifungal activity against C. albicans ATCC 10231 for each incubation period was evaluated using an inhibition zone assay. Nutrient YM solid medium was coated with C. albicans ATCC 10231, and then 10-μL aliquots of the plasma-peptide mixture were added to sterile, 5-mm-diameter filter paper disks placed on the medium. After 24 h of incubation, the diameter of the inhibition zone against C. albicans ATCC 10231 was measured in triplicate.

The next series deals with C. albicans ATCC 10231. Description: Cell membrane potential changes, DiSC3(5) staining. It is filed as cell-based, Candida albicans. The following applies: 16× MIC, 8× MIC and 1× MIC; 0.5 μM DiSC3(5), 100 mM KCl, measured for 60 min; dose-dependent; weaker than 10 μM valinomycin. On the procedure:
DiSC3(5) is a fluorescent probe often used as a tracer dye to assess the mitochondrial membrane potential ([71]); therefore, we assessed the effects of blapstin on the cell membrane potential changes of C. albicans ATCC 10231 using DiSC3(5) staining. C. albicans ATCC 10231 was cultured in YM medium to logarithmic stage in a constant-temperature shaking machine at 37°C, centrifuged at 1,000 × g for 5 min to remove the supernatant, and washed with normal saline three times, and then normal saline containing 100 mM potassium chloride (KCl) was used to dilute the bacterial solution to an optical density at 600 nm (OD600) of 0.1. DiSC3(5) dye was dissolved by dimethyl sulfoxide (DMSO) into the mother solution and normal saline diluted with 15% DMSO so that the final concentration of DiSC3(5) added to the bacterial solution was 0.5 μM. The mixture was added to a special fluorescent 96-well plate with 190 μL in each well. The excitation/emission wavelengths were set at 622/670 nm, measurement was carried out with a multifunctional fluorescent enzyme labeling instrument (SynergyH1; Biotek, USA) until the value of the enzyme marker was stable, and then measurement was continued for 20 min. The final concentrations were 16× MIC, 8× MIC, and 1× MIC when 10 μL blapstin was added to the experimental group. […]

Bridge positions count the residues as written; N and C are the ends. Ends that are not written are not given here.

“VRVGPCDQVCSRTNPEKDECCRAHGHSGHSSCYGGRMNCYG (disulfide 6-21, 10-32, 20-39 (inferred)) [Blapstin]”: the “Antifungal activity after pH exposure” value with C. albicans (pH 3 and pH 5 (HCl)) is recorded as “full antifungal activity was retained”; in the series with C. albicans (pH higher than 7 (NaOH, up to pH 9)), “reduced gradually”. Also, in the series with RAW 264.7 cells, the “Cytotoxicity in RAW 264.7 cells” value was “no obvious cytotoxicity”. Moreover, in series [1], the “Biofilm formation by C. albicans” value is recorded as “dose-dependently inhibited”. The “Sensitivity of antifungal activity to protease” value in the series on chymotrypsin and in the series with trypsin was “insensitive” in each case. For the same sequence, the “Ion channel inhibition activity” value in the series with ion channel is listed as “did not show ion channel inhibition activity”. Further, the “Residual antifungal activity after incubation in human plasma” value in series [2] (37°C, 24 h, inhibition zone against C. albicans ATCC 10231, triplicate) is reported as “did not completely disappear”. Further, the “Stability in human plasma” value in series [2] (8 h at 37°C, inhibition zone against C. albicans ATCC 10231) is “high stability”. Further, in the series with C. albicans ATCC 10231, the “Cellular DiSC3(5) fluorescence (membrane potential) compared with negative control” value is “increased significantly”.
